According to patent US8952024B2, “Herbicidal pyrimidone derivatives” (E I du Pont de Nemours and Company, priority 2009, dated 2015):

Columns and labels:
Format in all cases: in vivo
[1] = test system: barnyardgrass (Echinochloa crus-galli); experiment: Test A pre-/postemergence plant response
Outline: (§1)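 Greenhouse pots of loam/sand received directed preemergence soil sprays or postemergence sprays (plants 2–10 cm, 1–2 leaf stage), compounds formulated in non-phytotoxic solvent with surfactant. Injury was rated visually versus untreated controls after about ten days on a 0 (no effect) to 100 (complete control) scale.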

corn (Zea mays) = experiment: Test A pre-/postemergence plant response
Outline: as §1

[2] = test system: giant foxtail (Setaria faberii); experiment: Test A pre-/postemergence plant response
Outline: as §1

[3] = test system: large crabgrass (Digitaria sanguinalis); experiment: Test A pre-/postemergence plant response
Outline: as §1

[4] = test system: morningglory (Ipomoea spp.); experiment: Test A pre-/postemergence plant response
Outline: as §1

[5] = test system: pigweed (Amaranthus retroflexus); experiment: Test A pre-/postemergence plant response
Outline: as §1

[6] = test system: velvetleaf (Abutilon theophrasti); experiment: Test A pre-/postemergence plant response
Outline: as §1

[7] = test system: wheat (Triticum aestivum); experiment: Test A pre-/postemergence plant response
Outline: as §1

[8] = test system: winter barley (Hordeum vulgare); experiment: Test B postemergence plant response; details: Postemergence
Outline: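 Visual ratings from 0 (no effect) to 100 (complete control), made against controls 13–15 days after treatment, kept in a greenhouse. Compounds were applied postemergence to potted plants at the 1- to 4-leaf stage (2–18 cm).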

[9] = test system: barnyardgrass (Echinochloa crus-galli); experiment: Test B flooded paddy test; details: for Plant response rating, Barnyardgrass: Flood (flooded paddy test), 13 to 15 days
Outline: (§2)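 2-leaf seedlings; pots flooded 3 cm over soil at treatment; cpd dosed into floodwater, depth kept constant. Greenhouse 13–15 d. Visual rating vs untreated controls, 0 = no effect, 100 = complete control.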

[10] = test system: ducksalad (Heteranthera limosa); experiment: Test B flooded paddy test; details: for Plant response rating, Ducksalad: Flood (flooded paddy test), 13 to 15 days
Outline: as §2

rice (Oryza sativa) = experiment: Test B flooded paddy test; details: for Plant response rating, Rice: Flood (flooded paddy test), 13 to 15 days
Outline: as §2

[11] = test system: umbrella sedge (Cyperus difformis); experiment: Test B flooded paddy test; details: for Plant response rating, Sedge, Umbrella: Flood (flooded paddy test), 13 to 15 days
Outline: as §2

[12] = Postemergence, 125 g ai/ha, 0 to 100 scale where 0 is no effect and 100 is complete control
[13] = Postemergence, 500 g ai/ha, visual injury, 0 to 100 scale (0 no effect, 100 complete control), approx. ten days
[14] = Preemergence, 125 g ai/ha, 0 to 100 scale where 0 is no effect and 100 is complete control, approximately ten days
[15] = Preemergence, 500 g ai/ha, 0 to 100 scale, 0 = no effect, 100 = complete control
[16] = Postemergence, 125 g ai/ha, visual injury, 0 to 100 scale (0 no effect, 100 complete control), approx. ten days
[17] = 250 g ai/ha, flooded paddy test, visual rating on 0 to 100 scale (0 no effect, 100 complete control) after 13 to 15 days
[18] = 62 g ai/ha, scale of 0 to 100 where 0 is no effect and 100 is complete control
[19] = 125 g ai/ha, scale 0 to 100, 0 is no effect, 100 is complete control
[20] = Flood, 31 g ai/ha, scale 0 to 100 (0 no effect, 100 complete control)

`COCCCn1c(-c2cc(F)cc(F)c2)ncc(C(=O)C2=C(O)C3CCC(C3)C2=O)c1=O` (stereo not shown) [Compound 244] was tested, and the “Plant response rating, Barnyardgrass” value [1, 12] was 90, the “Barnyardgrass plant response rating” value [1, 13] was 100 and the “Plant response rating, Barnyardgrass” value [1, 14] was 30. The “Plant response rating, Barnyardgrass” value [1, 15] was 100, the “Plant response rating, Corn” value (corn (Zea mays); [12]) was 40 and the “Corn plant response rating” value (corn (Zea mays); [13]) was 80. The “Plant response rating, Corn” value (corn (Zea mays); [14]) was 20, the “Plant response rating, Corn” value (corn (Zea mays); [15]) was 40 and the “Plant response rating, Foxtail, Giant” value [2, 16] was 90. For the same compound, the “Foxtail, Giant plant response rating” value [2, 13] was 90, the “Plant response rating, Foxtail, Giant” value [2, 14] was 70 and the “Plant response rating, Foxtail, Giant” value [2, 15] was 100. For the same compound, the “Plant response rating, Crabgrass, Large” value [3, 12] was 90, the “Crabgrass, Large plant response rating” value [3, 13] was 90 and the “Plant response rating, Crabgrass, Large” value [3, 14] was 90. For the same compound, the “Plant response rating, Crabgrass, Large” value [3, 15] was 100, the “Plant response rating, Morningglory” value [4, 16] was 100 and the “Morningglory plant response rating” value [4, 13] was 100. For the same compound, the “Plant response rating, Morningglory” value [4, 14] was 30, the “Plant response rating, Morningglory” value [4, 15] was 80 and the “Plant response rating, Pigweed” value [5, 16] was 100. For the same compound, the “Pigweed plant response rating” value [5, 13] was 100, the “Plant response rating, Pigweed” value [5, 14] was 100 and the “Plant response rating, Pigweed” value [5, 15] was 100. The “Plant response rating, Velvetleaf” value [6, 16] was 100, the “Velvetleaf plant response rating” value [6, 13] was 100 and the “Plant response rating, Velvetleaf” value [6, 14] was 50. The “Plant response rating, Velvetleaf” value [6, 15] was 100, the “Plant response rating, Wheat” value [7, 16] was 40 and the “Wheat plant response rating” value [7, 13] was 70. For the same compound, the “Plant response rating, Wheat” value [7, 14] was 0, the “Plant response rating, Wheat” value [7, 15] was 40 and the “Plant response rating, Barley” value ([8]; 31 g ai/ha, 0 to 100 scale (0 no effect, 100 complete control)) was 50. For the same compound, the “Plant response rating, Barley” value ([8]; 125 g ai/ha, scale 0 (no effect) to 100 (complete control), 13 to 15 days) was 90, the “Plant response rating, Barley” value ([8]; 250 g ai/ha, scale 0 to 100 (0 no effect, 100 complete control), 13 to 15 days) was 98 and the “Plant response rating, Barley” value ([8]; 62 g ai/ha, scale 0 to 100 (0 no effect, 100 complete control)) was 65. For the same compound, the “Plant response rating, Flood, Barnyardgrass” value [9, 17] was 75, the “Plant response rating, Barnyardgrass” value [9, 18] was 20 and the “Plant response rating, Barnyardgrass” value [9, 19] was 40. For the same compound, the “Barnyardgrass plant response rating” value [9, 20] was 0, the “Plant response rating, Flood, Ducksalad” value [10, 17] was 100 and the “Plant response rating, Ducksalad” value [10, 18] was 80. The “Plant response rating, Ducksalad” value [10, 19] was 100, the “Ducksalad plant response rating” value [10, 20] was 35 and the “Plant response rating, Flood, Rice” value (rice (Oryza sativa); [17]) was 85. For the same compound, the “Plant response rating, Rice” value (rice (Oryza sativa); [18]) was 0, the “Plant response rating, Rice” value (rice (Oryza sativa); [19]) was 60 and the “Rice plant response rating” value (rice (Oryza sativa); [20]) was 0. For the same compound, the “Plant response rating, Flood, Sedge, Umbrella” value [11, 17] was 100, the “Plant response rating, Sedge, Umbrella” value [11, 18] was 0 and the “Plant response rating, Sedge, Umbrella” value [11, 19] was 100. For the same compound, the “Sedge, Umbrella plant response rating” value [11, 20] was 0.
